Assay results reported in patent publication US20140213559A1, “COMPOSITIONS AND TREATMENTS FOR DYSTROPHIES” (MD PHARMA AB, priority 2011, published 2014).

Columns and labels:
Type in all cases: in vivo, mouse
Akt = Akt phosphorylation in quadriceps muscle, Western blot; conditions: dy3K/dy3K quadriceps
Procedure: (§1) Systemic administration was performed by intraperitoneal injection of 3-MA (15 mg/kg) into dy3K/dy3K mice and control littermates at the age of 2.5 weeks and 3.5 weeks. Mice were sacrificed 14 days after injection and quadriceps and tibialis anterior muscles were processed for morphometric analysis, immunofluorescence experiments, qRT-PCR or Western blot analysis. Prior to the euthanasia, an exploratory locomotion test was performed.
Isolated quadriceps muscles were obtained from 6 wild-type, 6 dy3K/dy3K mice (3.5 weeks of age) and 6 dy3K/dy3K mice 48 h or 14 days after 3-MA injection. Each sample was immediately frozen in liquid nitrogen and reduced to powder using a mortar. Protein extracts were obtained as previously described (16). A total of […] of denaturated protein was loaded on 10-20% acrylamide SDS-gels (Clearpage, CBS Scientific) and blotted onto nitrocellulose membranes (Hybond-C, Amersham) during 1.5 hour (Biorad). The membranes were blocked for one hour at RT in PBS, 0.01% Tween-20, 5% milk and incubated overnight at 4° C. with rabbit polyclonal antibodies directed against pAkt (Ser 473, 1/2000, #4060 or Thr 308, 1/1000, #2965, Cell Signaling Technology), Akt (1/1000, #4685, Cell Signaling Technology), Vps34 (1/200, V9764, Sigma) or LC3B (1/250, #2775, Cell Signaling Technology). […]

dy3K/dy3K mice [1] = test: Body weight measurement; conditions: 3-MA treated vs non-injected dy3K/dy3K mice, 4-week-old
Procedure: as §1

[2] = tested on: autophagy-related genes (LC3B, Cathepsin L, Lamp2a, Gabarapl1, Atg4b, Vps34, Beclin); test: Expression of autophagy-related genes in quadriceps muscle after systemic 3-MA injection (qRT-PCR, Western blot, immunofluorescence); conditions: dy3K/dy3K mice, 3-MA 15 mg/kg intraperitoneal at 2.5 and 3.5 weeks, 14 days post-injection
Procedure: as §1
Total RNA was extracted from 10 mg quadriceps muscle of 6 dy3K/dy3K mice (3.5-week-old) and 6 WT littermates and 5 WT and 5 dy3K/dy3K mice treated with 3-MA using RNeasy mini kit (Qiagen) including an initial step of proteinase K digestion (Fermentas, 240 ng/μl). […] Quantitative PCRs were performed in triplicate with the Maxima SYBR Green qPCR Master Mix (Fermentas). Expression of target and reference genes was monitored using a real-time qRT-PCR method (Light Cycler, Roche) with the previously described primers for the autophagic genes LC3B, Cathepsin L, Lamp2a, Gabarapl1, Atg4b, Vps34 and Beclin (8). The amplification efficiency for each primer pair was evaluated by amplification of serially diluted template cDNAs ([…]). Efficiency corrected RNA levels (in arbitrary units) were calculated by using the formula E^−Ct. Expression levels were then calculated relative to the endogenous control gene GAPDH and relative to wild-type quadriceps. […]

dy3K/dy3K mice [3] = test: Survival curves; conditions: two systemic injections of 3-MA, 22 days for non-treated
Procedure: as §1
Death was monitored in 3-MA injected dy3K/dy3K mice (n=9). A survival curve was constructed using the GraphPad Prism 4 software.

dy3K/dy3K mice [4] = test: Peripheral neuropathy / hind leg paralysis observation; conditions: 3-MA treated dy3K/dy3K mice
Procedure: as §1

dy3K/dy3K mice [5] = test: Exploratory locomotion, open field test; conditions: 3-MA injected dy3K/dy3K mice, 14 days after injection, 5 min
Procedure: as §1
Exploratory locomotion was examined in an open field test. In each experiment, the mouse 14 days after 3-MA injection (n=11 for dy3K/dy3K and wild-type, respectively) was placed into a new cage and allowed to explore the cage for 5 min. The time that the mouse spent moving around was measured manually.

dy3K/dy3K mice [6] = test: Histology, immunofluorescence and morphometric analysis of muscle after systemic 3-MA injection
Procedure: Systemic administration was performed by intraperitoneal injection of 3-MA (15 mg/kg) into dy3K/dy3K mice and control littermates at the age of 2.5 weeks and 3.5 weeks. […] Prior to the euthanasia, an exploratory locomotion test was performed.
Quadriceps and tibialis anterior muscles from wild-type, dy3K/dy3K and injected mice (n=6 for each group) were rapidly dissected after euthanasia and frozen in OCT (Tissue Tek) in liquid nitrogen. Serial sections of […] were either stained with hematoxylin and eosin or processed for immunofluorescence experiments following standard procedures (20) with rabbit polyclonal antibodies directed against LC3B (1/100, #3868, Cell Signaling Technology), laminin γ1 chain (1/1000, #1083), laminin α4 chain (1/400, #1100) and […] (1/400, #1117) generously provided by Dr. T. Sasaki, rat monoclonal antibodies against laminin γ1 chain (1/200, MAB 1914, Chemicon) and tenascin-C (undiluted, MTn15), goat polyclonal antibody against collagen III (1/100, #1330, SouthernBiotech) and mouse monoclonal antibodies against caspase-3 (1/100, CPP32, BD Transduction Laboratory), embryonic myosin heavy chain (F1.652, Developmental Studies Hybridoma Bank) and MyoD (1/100, clone 5.8A Dako). For apoptotic myofiber detection, a TUNEL detection kit was used following instructions of the manufacturer (GenScript). Sections were analyzed using a Zeiss Axioplan fluorescence microscope. Images were captured using an ORCA 1394 ER digital camera with the Openlab 3 software.
Measurements were performed on whole quadriceps or tibialis anterior muscle sections from untreated wild-type and dy3K/dy3K, wild-type and dy3K/dy3K 3-MA injected animals (n=6 for each group). Tenascin-C and collagen III positive areas, eMHC positive fibers, caspase-3 positive fibers, TUNEL-positive myonuclei and fiber diameters were measured using the imageJ software. Minimal Feret's diameter was measured (41) for at least 1500 fibers for each mouse. The same number of fibers was used for quantification of fibers with centrally located nuclei. Wet quadriceps muscle weights were determined from 7 uninjected wild-type or dy3K/dy3K and 3-MA treated wild-type (n=4) and dy3K/dy3K (n=6) animals and correlated to body weight.

wild-type mice = test: Hind leg paralysis observation in injected wild-type mice; conditions: 3-MA injected wild-type mice
Procedure: as §1

[7] = 3-MA injected dy3K/dy3K mice, quadriceps
[8] = 3-MA injected vs non-injected dy3K/dy3K mice, quadriceps, 14 days post-injection
[9] = 3-MA treated dy3K/dy3K mice, quadriceps, 14 days

Q: Which “Akt phosphorylation on threonine 308 and serine 473” value (Akt; 48 h after injection) does the source give for `Cn1cnc(N)c2ncnc1-2` [3-MA, 3-methyladenine] here?
A: The value was “restored to wild-type levels”.

Q: And the “Akt phosphorylation on threonine 308 and serine 473” value (Akt; 14 days after injection)?
A: The value was “restored to wild-type levels”.

Q: What about the body weight (dy3K/dy3K mice [1]) of the same compound?
A: Its body weight is “weighed significantly more”.

Q: And the “expression of the autophagy-related genes” value [2]?
A: The value was “restored the expression of the autophagy-related genes to the basal level”.

Q: What about the median survival (dy3K/dy3K mice [3]) of the same compound?
A: The median survival was 37 days.

Q: What about the “pathology of the peripheral nerve” value (dy3K/dy3K mice [4]) of the same compound?
A: The value was “did not appreciably improve”.

Q: What about the hind leg paralysis (dy3K/dy3K mice [4]; similar in non-treated dy3K/dy3K mice) of the same compound?
A: The hind leg paralysis was “transient hind leg paralysis often occurred in one leg”.

Q: And the “activity in an open field test (exploratory locomotion)” value (dy3K/dy3K mice [5])?
A: The value was “same level of activity as wild-type animals”.

Q: And the “amount of MyoD1 positive nuclei” value (dy3K/dy3K mice [6]; [7])?
A: The value was “increased”.

Q: And the “number of cells with centrally located nuclei” value (dy3K/dy3K mice [6]; [7])?
A: The value was “slightly but significantly elevated”.

Q: What about the “proportion of fibers expressing eMHC” value (dy3K/dy3K mice [6]; [7]) of the same compound?
A: The value was “significantly increased”.

Q: And the “ratio of quadriceps muscle wet weight per body weight” value (dy3K/dy3K mice [6]; 3-MA injected vs age-matched non-injected dy3K/dy3K mice)?
A: Its value is “normalized”.

Q: And the “Collagen III expression (fibrosis)” value (dy3K/dy3K mice [6]; [8])?
A: Its value is “reduced”.

Q: And the “tenascin-C expression (fibrosis)” value (dy3K/dy3K mice [6]; [8])?
A: Its value is “reduced”.

Q: And the “proportion of TUNEL-positive myonuclei” value (dy3K/dy3K mice [6]; 3-MA treated dy3K/dy3K animals, quadriceps)?
A: The value was “significantly reduced”.

Q: What about the “expression of laminin 132 chain” value (dy3K/dy3K mice [6]; [9]) of the same compound?
A: Its value is “near normal”.

Q: What about the “expression of laminin α4 chain” value (dy3K/dy3K mice [6]; [9]) of the same compound?
A: The value was “near normal”.

Q: What about the muscle morphology (dy3K/dy3K mice [6]; dy3K/dy3K mice, 3-MA 15 mg/kg intraperitoneal at 2.5 and 3.5 weeks, 14 days post-injection) of the same compound?
A: The muscle morphology was “considerably improved muscle morphology”.

Q: What about the caspase-3 positive fibers (dy3K/dy3K mice [6]; dy3K/dy3K mice, forty-eight hours after 3-MA injection) of the same compound?
A: The caspase-3 positive fibers was “same proportion as in non-injected dy3K/dy3K mice”.

Q: What about the “proportion of caspase 3 positive fibers” value (dy3K/dy3K mice [6]; dy3K/dy3K quadriceps, 14 days after injection) of the same compound?
A: The value was “significantly decreased”.

Q: What about the average fibre diameter (dy3K/dy3K mice [6]; quadriceps, dy3K/dy3K mice upon 3-MA injection) of the same compound?
A: Its average fibre diameter is “increased”.

Q: And the “fibre size distribution in quadriceps muscle” value (dy3K/dy3K mice [6]; wild-type and dy3K/dy3K injected animals)?
A: Its value is “significantly shifted towards larger fibres”.

Q: And the hind leg paralysis (wild-type mice)?
A: Its hind leg paralysis is “not in 3-MA injected wild-type mice”.
